The record followed here is US20240124417A1, “COMPOUNDS USEFUL AS IMMUNOMODULATORS” (Bristol-Myers Squibb Company, priority 2019, published 2024).

The term IC50 denotes the concentration needed to halve the response being measured.

The target of this assay is T1, PD-1/PD-L1 (Homo sapiens, UniProt Q9NZQ7).
T1 construct: TVMV protease site linker (C); made in house; host or cells: HEK293T cells
T1 sequence (Q9NZQ7 18-239): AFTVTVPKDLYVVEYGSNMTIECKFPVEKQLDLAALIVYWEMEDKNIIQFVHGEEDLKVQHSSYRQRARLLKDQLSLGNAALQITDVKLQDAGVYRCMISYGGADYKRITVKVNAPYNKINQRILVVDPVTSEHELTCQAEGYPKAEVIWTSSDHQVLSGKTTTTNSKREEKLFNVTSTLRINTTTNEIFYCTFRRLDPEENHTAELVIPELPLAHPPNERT
As to the kind of experiment: PD-1/PD-L1 Homogenous Time-Resolved Fluorescence (HTRF) binding assay. Particulars: PD-L1-His 10 nM, PD-1-Ig 20 nM. Put shortly:
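Inhibitors pre-incubated 15 min with PD-L1-His extracellular domain (10 nM final) in dPBS with 0.1% BSA and 0.05% Tween-20, then PD-1-Ig (20 nM final) added for a further 15 min. Read-out by HTRF with europium cryptate anti-Ig (1 nM) and APC anti-His (20 nM). Related pairs: PD-1-Ig/PD-L2-His (20/5 nM), CD80-His/PD-L1-Ig (100/10 nM).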
As to `Cc1c(COc2cc(OCc3cncc(C#N)c3)c(CNCc3cccnn3)cc2Cl)cccc1-c1cccc(OCc2cncnc2)c1Cl` [Example 2061, 5-((4-chloro-5-((2′-chloro-2-methyl-3′-(pyrimidin-5-ylmethoxy)-[1,1′-biphenyl]-3-yl)methoxy)-2-(((pyridazin-3-ylmethyl)amino)methyl)phenoxy)methyl)nicotinonitrile], the IC50 turned out to be 16.9 nM.

`Cc1c(COc2cc(OCc3cncc(C#N)c3)c(CNCc3c[nH]cn3)cc2Cl)cccc1-c1cccc(OCc2cncnc2)c1Cl` [Example 2062, 5-((2-((((1H-imidazol-4-yl)methyl)amino)methyl)-4-chloro-5-((2′-chloro-2-methyl-3′-(pyrimidin-5-ylmethoxy)-[1,1′-biphenyl]-3-yl)methoxy)phenoxy)methyl)nicotinonitrile]: the IC50 is 7.6 nM.

`Cc1c(COc2cc(OCc3cncc(C#N)c3)c(CNCc3ncccn3)cc2Cl)cccc1-c1cccc(OCc2cncnc2)c1Cl` [Example 2063, 5-((4-chloro-5-((2′-chloro-2-methyl-3′-(pyrimidin-5-ylmethoxy)-[1,1′-biphenyl]-3-yl)methoxy)-2-(((pyrimidin-2-ylmethyl)amino)methyl)phenoxy)methyl)nicotinonitrile] came in with an IC50 of 28.5 nM.

Consider `Cc1c(COc2cc(OCc3cncc(C#N)c3)c(CNCc3cccnn3)cc2Cl)cccc1-c1cccc(OCC2CCCN(CCC(F)(F)F)C2)c1Cl` (stereo not drawn) [Example 2064, 5-((4-chloro-5-((2′-chloro-2-methyl-3′-((1-(3,3,3-trifluoropropyl)piperidin-3-yl)methoxy)-[1,1′-biphenyl]-3-yl)methoxy)-2-(((pyridazin-3-ylmethyl)amino)methyl)phenoxy)methyl)nicotinonitrile], for which the 50% inhibitory concentration (IC50) is 179 nM.

The molecule `Cc1c(COc2cc(OCc3cncc(C#N)c3)c(CNCc3c[nH]cn3)cc2Cl)cccc1-c1cccc(OCC2CCCN(CCC(F)(F)F)C2)c1Cl` (stereo not drawn) [Example 2065, 5-((2-((((1H-imidazol-4-yl)methyl)amino)methyl)-4-chloro-5-((2′-chloro-2-methyl-3′-((1-(3,3,3-trifluoropropyl)piperidin-3-yl)methoxy)-[1,1′-biphenyl]-3-yl)methoxy)phenoxy)methyl)nicotinonitrile] yielded an IC50 of 28 nM.

Consider `Cc1c(COc2cc(OCc3cncc(C#N)c3)c(CNCc3ncccn3)cc2Cl)cccc1-c1cccc(OCC2CCCN(CCC(F)(F)F)C2)c1Cl` (stereo not drawn) [Example 2066, 5-((4-chloro-5-((2′-chloro-2-methyl-3′-((1-(3,3,3-trifluoropropyl)piperidin-3-yl)methoxy)-[1,1′-biphenyl]-3-yl)methoxy)-2-(((pyrimidin-2-ylmethyl)amino)methyl)phenoxy)methyl)nicotinonitrile], for which the IC50 turned out to be 75.9 nM.

In the case of `Cc1c(COc2cc(OCc3cncc(C#N)c3)c(CNCc3cn[nH]n3)cc2Cl)cccc1-c1cccc(OCC2CCCN(CCC(F)(F)F)C2)c1Cl` (stereo not drawn) [Example 2068, 5-((2-((((2H-1,2,3-triazol-4-yl)methyl)amino)methyl)-4-chloro-5-((2′-chloro-2-methyl-3′-((1-(3,3,3-trifluoropropyl)piperidin-3-yl)methoxy)-[1,1′-biphenyl]-3-yl)methoxy)phenoxy)methyl)nicotinonitrile], the IC50 was 89.6 nM.

The molecule `Cc1c(COc2cc(OCc3cncc(C#N)c3)c(CN(C)Cc3cccnc3)cc2Cl)cccc1-c1cccc(OCCCN2CC[C@@H](O)C2)c1C` [Example 2501, (R)-5-((4-chloro-5-((3′-(3-(3-hydroxypyrrolidin-1-yl)propoxy)-2,2′-dimethyl-[1,1′-biphenyl]-3-yl)methoxy)-2-((methyl(pyridin-3-ylmethyl)amino)methyl)phenoxy)methyl)nicotinonitrile] gave an IC50 of 2.3 nM.

As to `Cc1c(COc2cc(OCc3cncc(C#N)c3)c(CN3CCc4c(ncn4C)C3)cc2Cl)cccc1-c1cccc(OCCCN2CC[C@@H](O)C2)c1C` [Example 2502], the IC50 stood at 0.9 nM.

On to `Cc1nc2c(s1)CN(Cc1cc(Cl)c(OCc3cccc(-c4cccc(OCCCN5CC[C@@H](O)C5)c4C)c3C)cc1OCc1cncc(C#N)c1)CC2` [Example 2503, (R)-5-((4-chloro-5-((3′-(3-(3-hydroxypyrrolidin-1-yl)propoxy)-2,2′-dimethyl-[1,1′-biphenyl]-3-yl)methoxy)-2-((2-methyl-6,7-dihydrothiazolo[5,4-c]pyridin-5(4H)yl)methyl)phenoxy)methyl)nicotinonitrile], for which the IC50 worked out at 3.9 nM.

`Cc1ncsc1CCNCc1cc(Cl)c(OCc2cccc(-c3cccc(OCCCN4CC[C@@H](O)C4)c3C)c2C)cc1OCc1cncc(C#N)c1` [Example 2504, (R)-5-((4-chloro-5-((3′-(3-(3-hydroxypyrrolidin-1-yl)propoxy)-2,2′-dimethyl-[1,1′-biphenyl]-3-yl)methoxy)-2-(((2-(4-methylthiazol-5-yl)ethyl)amino)methyl)phenoxy)methyl)nicotinonitrile] registered an IC50 of 1.8 nM.

Turning to `Cc1c(COc2cc(OCc3cncc(C#N)c3)c(CNCCc3nc4ccccc4[nH]3)cc2Cl)cccc1-c1cccc(OCCCN2CC[C@@H](O)C2)c1C` [Example 2505, (R)-5-((2-(((2-(1H-benzo[d]imidazol-2-yl)ethyl)amino)methyl)-4-chloro-5-((3′-(3-(3 hydroxypyrrolidin-1-yl)propoxy)-2,2′-dimethyl-[1,1′-biphenyl]-3yl)methoxy)phenoxy)methyl)nicotinonitrile], the IC50 came out at 6.7 nM.

The molecule `Cc1c(COc2cc(OCc3cncc(C#N)c3)c(CNCCc3cscn3)cc2Cl)cccc1-c1cccc(OCCCN2CC[C@@H](O)C2)c1C` [Example 2506, (R)-5-((4-chloro-5-((3′-(3-(3-hydroxypyrrolidin-1-yl)propoxy)-2,2′-dimethyl-[1,1′-biphenyl]-3-yl)methoxy)-2-(((2-(thiazol-4-yl)ethyl)amino)methyl)phenoxy)methyl)nicotinonitrile] registered a half-maximal inhibitory concentration (IC50) of 0.4 nM.

As to `Cc1c(COc2cc(OCc3cncc(C#N)c3)c(CN(C)CCc3cscn3)cc2Cl)cccc1-c1cccc(OCCCN2CC[C@@H](O)C2)c1C` [Example 2507, (R)-5-((4-chloro-5-((3′-(3-(3-hydroxypyrrolidin-1-yl)propoxy)-2,2′-dimethyl-[1,1′-biphenyl]-3-yl)methoxy)-2-((methyl(2-(thiazol-4-yl)ethyl)amino)methyl)phenoxy)methyl)nicotinonitrile], the IC50 was determined as 1.7 nM.

Consider `Cc1c(COc2cc(OCc3cncc(C#N)c3)c(CN(C)CCc3nc4ccccc4[nH]3)cc2Cl)cccc1-c1cccc(OCCCN2CC[C@@H](O)C2)c1C` [Example 2508, (R)-5-((2-(((2-(1H-benzo[d]imidazol-2-yl)ethyl)(methyl)amino)methyl)-4-chloro-5-((3′-(3-(3-hydroxypyrrolidin-1-yl)propoxy)-2,2′-dimethyl-[1,1′-biphenyl]-3-yl)methoxy)phenoxy)methyl)nicotinonitrile], for which the IC50 is 6.2 nM.

On to `Cc1c(COc2cc(OCc3cncc(C#N)c3)c(CN(C)CCc3ncn[nH]3)cc2Cl)cccc1-c1cccc(OCCCN2CC[C@@H](O)C2)c1C` [Example 2509, (R)-5-((2-(((2-(1H-1,2,4-triazol-5-yl)ethyl)(methyl)amino)methyl)-4-chloro-5-((3′-(3-(3-hydroxypyrrolidin-1-yl)propoxy)-2,2′-dimethyl-[1,1′-biphenyl]-3-yl)methoxy)phenoxy)methyl)nicotinonitrile], for which the IC50 amounted to 0.2 nM.

`Cc1c(COc2cc(OCc3cncc(C#N)c3)c(CN(C)CCc3nc4ccccc4n3C)cc2Cl)cccc1-c1cccc(OCCCN2CC[C@@H](O)C2)c1C` [Example 2510, (R)-5-((4-chloro-5-((3′-(3-(3-hydroxypyrrolidin-1-yl)propoxy)-2,2′-dimethyl-[1,1′-biphenyl]-3-yl)methoxy)-2-((methyl(2-(1-methyl-1H-benzo[d]imidazol-2-yl)ethyl)amino)methyl)phenoxy)methyl)nicotinonitrile]: the half-inhibitory concentration (IC50) is 3.3 nM.

`Cc1ncsc1CCN(C)Cc1cc(Cl)c(OCc2cccc(-c3cccc(OCCCN4CC[C@@H](O)C4)c3C)c2C)cc1OCc1cncc(C#N)c1` [Example 2511, (R)-5-((4-chloro-5-((3′-(3-(3-hydroxypyrrolidin-1-yl)propoxy)-2,2′-dimethyl-[1,1′-biphenyl]-3-yl)methoxy)-2-((methyl(2-(4-methylthiazol-5-yl)ethyl)amino)methyl)phenoxy)methyl)nicotinonitrile] returned an IC50 of 3.3 nM.

On to `Cc1c(COc2cc(OCc3cncc(C#N)c3)c(CN3CCc4[nH]ncc4C3)cc2Cl)cccc1-c1cccc(OCCCN2CC[C@@H](O)C2)c1C` [Example 2512, (R)-5-((4-chloro-5-((3′-(3-(3-hydroxypyrrolidin-1-yl)propoxy)-2,2′-dimethyl-[1,1′-biphenyl]-3-yl)methoxy)-2-((1,4,6,7-tetrahydro-5H-pyrazolo[4,3-c]pyridin-5-yl)methyl)phenoxy)methyl)nicotinonitrile], for which the IC50 amounted to 3.9 nM.

`Cc1c(COc2cc(OCc3cncc(C#N)c3)c(CN3CCC(c4cc[nH]n4)C3)cc2Cl)cccc1-c1cccc(OCCCN2CC[C@@H](O)C2)c1C` (stereo partly drawn) [Example 2513, 5-((2-((3-(1H-pyrazol-3-yl)pyrrolidin-1-yl)methyl)-4-chloro-5-((3′-(3-((R)-3-hydroxypyrrolidin-1-yl)propoxy)-2,2′-dimethyl-[1,1′-biphenyl]-3-yl)methoxy)phenoxy)methyl)nicotinonitrile]: the IC50 came out at 3.6 nM.

The molecule `Cc1c(COc2cc(OCc3cncc(C#N)c3)c(CNCCc3cc[nH]n3)cc2Cl)cccc1-c1cccc(OCCCN2CC[C@@H](O)C2)c1C` [Example 2514, (R)-5-((2-(((2-(1H-pyrazol-3-yl)ethyl)amino)methyl)-4-chloro-5-((3′-(3-(3-hydroxypyrrolidin-1-yl)propoxy)-2,2′-dimethyl-[1,1′-biphenyl]-3-yl)methoxy)phenoxy)methyl)nicotinonitrile] had an IC50 of 1.9 nM.
